We go through 31 compounds from patent publication US20240398781A1, “SPIROCYCLIC CYCLIC MODULATORS OF CHOLESTEROL BIOSYNTHESIS AND THEIR USE FOR PROMOTING REMYELINATION” (GENENTECH, INC., priority 2021, published 2024).

Sequence of human emopamil binding protein and human 7-dehydrocholesterol reductase co-expressing cells (hEBP-DHCR7 membrane) (Q15125 whole entry): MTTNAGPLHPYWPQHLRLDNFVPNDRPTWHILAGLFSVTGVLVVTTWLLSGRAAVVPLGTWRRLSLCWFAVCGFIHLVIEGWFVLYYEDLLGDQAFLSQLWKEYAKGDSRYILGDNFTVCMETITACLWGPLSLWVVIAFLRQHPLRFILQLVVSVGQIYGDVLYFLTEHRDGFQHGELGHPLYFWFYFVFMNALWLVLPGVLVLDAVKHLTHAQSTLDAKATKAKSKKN

The assay addresses human emopamil binding protein and human 7-dehydrocholesterol reductase co-expressing cells (hEBP-DHCR7 membrane) (Homo sapiens (Human), UniProt Q15125). As to the kind of experiment: Radioligand filter binding assay on hEBP-DHCR7 membrane. The following applies: [3H]-(S)-6-(2-Methyl-3-(6-(trifluoromethyl)pyridin-3-yl)propyl)-2-thia-6-azaspiro[3.4]octane 2,2-dioxide radioligand, HEK293 membrane co-expressing hEBP and hDHCR7. Summed up: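 HEK293 cells transiently co-expressing human EBP and DHCR7 supplied whole-cell membranes (10 μg/well), incubated 3 h at 22 °C with [3H]-labelled spiro-octane dioxide ligand (added at 25 nM) and compound (0.06-5000 nM final, 8 doses, n=2). Bound ligand was collected on PEI-treated GF/B filters and counted by scintillation. IC50 was Hill-fitted from % inhibition and reported as Ki.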
`O=S1(=O)CC2(CCN([C@H]3CC[C@H](c4ccc(C(F)(F)F)cc4)CC3)C2)C1` [Compound 3A, 6-((1r,4r)-4-(4-(trifluoromethyl)phenyl)cyclohexyl)-2-thia-6-azaspiro[3.4]octane 2,2-dioxide]: the Ki was 15.8 nM.

On to `O=S1(=O)CC2(CCN([C@H]3CC[C@@H](c4ccc(C(F)(F)F)cc4)CC3)C2)C1` [Compound 3B, 6-((1s,4s)-4-(4-(trifluoromethyl)phenyl)cyclohexyl)-2-thia-6-azaspiro[3.4]octane 2,2-dioxide], for which the Ki was found to be 27.5 nM. Consider `O=S1(=O)CC2(CCN(C3CCN(c4ccc(C(F)(F)F)cc4)CC3)C2)C1` [Compound 4, 6-(1-(4-(trifluoromethyl)phenyl)piperidin-4-yl)-2-thia-6-azaspiro[3.4]octane 2,2-dioxide], for which the affinity corresponds to a Ki of 51.8 nM. In the case of `O=S1(=O)CC2(CCN(C3CCN(c4ccc(C(F)(F)F)nc4)CC3)C2)C1` [Compound 5, 6-(1-(6-(trifluoromethyl)pyridin-3-yl)piperidin-4-yl)-2-thia-6-azaspiro[3.4]octane 2,2-dioxide], the Ki amounted to 148 nM. `O=S1(=O)CC2(CCN(C3CCN(c4ccc(C(F)(F)F)cn4)CC3)C2)C1` [Compound 6, 6-(1-(5-(trifluoromethyl)pyridin-2-yl)piperidin-4-yl)-2-thia-6-azaspiro[3.4]octane 2,2-dioxide]: the inhibition constant Ki stood at 23 nM. `Cc1cc(C(F)(F)F)cnc1N1CCC(N2CCC3(C2)CS(=O)(=O)C3)CC1` [Compound 7, 6-(1-(3-methyl-5-(trifluoromethyl)pyridin-2-yl)piperidin-4-yl)-2-thia-6-azaspiro[3.4]octane 2,2-dioxide] gave a Ki of 17.5 nM. In turn, `CC(C)n1nc(C(F)(F)F)cc1[C@H]1CC[C@H](N2CCC3(C2)CS(=O)(=O)C3)CC1` [Compound 8A, 6-((1r,4r)-4-(1-isopropyl-3-(trifluoromethyl)-1H-pyrazol-5-yl)cyclohexyl)-2-thia-6-azaspiro[3.4]octane 2,2-dioxide] registered a Ki of 34 nM. To `CC(C)n1nc(C(F)(F)F)cc1[C@H]1CC[C@@H](N2CCC3(C2)CS(=O)(=O)C3)CC1` [Compound 8B, 6-((1s,4s)-4-(1-isopropyl-3-(trifluoromethyl)-1H-pyrazol-5-yl)cyclohexyl)-2-thia-6-azaspiro[3.4]octane 2,2-dioxide] belongs 32.9 nM; to `O=S1(=O)CC2(CCN([C@H]3CC[C@H](c4cc(C(F)(F)F)nn4C4CC4)CC3)C2)C1` [Compound 12A, 6-((1r,4r)-4-(1-Cyclopropyl-3-(trifluoromethyl)-1H-pyrazol-5-yl)cyclohexyl)-2-thia-6-azaspiro[3.4]octane 2,2-dioxide], 34 nM. Regarding `O=S1(=O)CC2(CCN([C@H]3CC[C@@H](c4cc(C(F)(F)F)nn4C4CC4)CC3)C2)C1` [Compound 12B, 6-((1s,4s)-4-(1-Cyclopropyl-3-(trifluoromethyl)-1H-pyrazol-5-yl)cyclohexyl)-2-thia-6-azaspiro[3.4]octane 2,2-dioxide], the Ki stood at 32 nM. To `O=S1(=O)CC2(CCN([C@H]3CC[C@H](c4ccc(C(F)(F)F)nc4)CC3)C2)C1` [Compound 14A, 6-((1r,4r)-4-(6-(Trifluoromethyl)pyridin-3-yl)cyclohexyl)-2-thia-6-azaspiro[3.4]octane 2,2-dioxide] belongs 59 nM; to `O=S1(=O)CC2(CCN([C@H]3CC[C@@H](c4ccc(C(F)(F)F)nc4)CC3)C2)C1` [Compound 14B, 6-((1s,4s)-4-(6-(Trifluoromethyl)pyridin-3-yl)cyclohexyl)-2-thia-6-azaspiro[3.4]octane 2,2-dioxide], 28 nM. Turning to `CCn1nc(C(F)(F)F)cc1[C@H]1CC[C@H](N2CCC3(C2)CS(=O)(=O)C3)CC1` [Compound 15, 6-((1r,4r)-4-(1-Ethyl-3-(trifluoromethyl)-1H-pyrazol-5-yl)cyclohexyl)-2-thia-6-azaspiro[3.4]octane 2,2-dioxide], the inhibitory constant (Ki) amounted to 56 nM.

The compound `CCn1nc([C@H]2CC[C@H](N3CCC4(C3)CS(=O)(=O)C4)CC2)cc1C(F)(F)F` [Compound 16, 6-((1r,4r)-4-(1-Ethyl-5-(trifluoromethyl)-1H-pyrazol-3-yl)cyclohexyl)-2-thia-6-azaspiro[3.4]octane 2,2-dioxide] displayed an inhibition constant Ki of 52 nM. For the compound `Cc1cc(C(F)(F)F)ncc1[C@H]1CC[C@@H](N2CCC3(C2)CS(=O)(=O)C3)CC1` [Compound 21A, 6-((1s,4s)-4-(4-Methyl-6-(trifluoromethyl)pyridin-3-yl)cyclohexyl)-2-thia-6-azaspiro[3.4]octane 2,2-dioxide], the affinity, expressed as Ki, was 32 nM. Compound `Cc1cc(C(F)(F)F)ncc1[C@H]1CC[C@H](N2CCC3(C2)CS(=O)(=O)C3)CC1` [Compound 21B, 6-((1r,4r)-4-(4-Methyl-6-(trifluoromethyl)pyridin-3-yl)cyclohexyl)-2-thia-6-azaspiro[3.4]octane 2,2-dioxide] had a Ki of 46 nM. Compound `O=S1(=O)CC2(CCN([C@H]3CC[C@@H](c4cc(C(F)(F)F)nn4C4CCC4)CC3)C2)C1` [Compound 23A, 6-((1s,4s)-4-(1-Cyclobutyl-3-(trifluoromethyl)-1H-pyrazol-5-yl)cyclohexyl)-2-thia-6-azaspiro[3.4]octane 2,2-dioxide] gave an inhibitory constant (Ki) of 21 nM. As to `O=S1(=O)CC2(CCN([C@H]3CC[C@H](c4cc(C(F)(F)F)nn4C4CCC4)CC3)C2)C1` [Compound 23B, 6-((1r,4r)-4-(1-Cyclobutyl-3-(trifluoromethyl)-1H-pyrazol-5-yl)cyclohexyl)-2-thia-6-azaspiro[3.4]octane 2,2-dioxide], the inhibition constant Ki stood at 12 nM. In turn, `O=S1(=O)CC2(CCN([C@H]3CC[C@H](c4cc(C(F)(F)F)n(C5CCC5)n4)CC3)C2)C1` [Compound 24, 6-((1r,4r)-4-(1-cyclobutyl-5-(trifluoromethyl)-1H-pyrazol-3-yl)cyclohexyl)-2-thia-6-azaspiro[3.4]octane 2,2-dioxide] returned a Ki of 11 nM. `Cn1nc(C(F)(F)F)cc1[C@H]1CC[C@@H](N2CCC3(CC2)CS(=O)(=O)C3)CC1` [Compound 25A, 7-((1s,4s)-4-(1-Methyl-3-(trifluoromethyl)-1H-pyrazol-5-yl)cyclohexyl)-2-thia-7-azaspiro[3.5]nonane 2,2-dioxide] showed a Ki of 450 nM. Consider `Cn1nc(C(F)(F)F)cc1[C@H]1CC[C@H](N2CCC3(CC2)CS(=O)(=O)C3)CC1` [Compound 25B, 7-((1r,4r)-4-(1-methyl-3-(trifluoromethyl)-1H-pyrazol-5-yl)cyclohexyl)-2-thia-7-azaspiro[3.5]nonane 2,2-dioxide], for which the affinity corresponds to a Ki of 270 nM. Against the preceding compound, the Ki is about 1.7-fold lower. For `Cc1cc(C(F)(F)F)ncc1N1CCC(N2CCC3(C2)CS(=O)(=O)C3)CC1` [Compound 28, 6-(1-(4-Methyl-6-(trifluoromethyl)pyridin-3-yl)piperidin-4-yl)-2-thia-6-azaspiro[3.4]octane 2,2-dioxide], the inhibition constant Ki was 30 nM. Consider `Cc1nc(C(F)(F)F)ccc1N1CCC(N2CCC3(C2)CS(=O)(=O)C3)CC1` [Compound 29, 6-(1-(2-methyl-6-(trifluoromethyl)pyridin-3-yl)piperidin-4-yl)-2-thia-6-azaspiro[3.4]octane 2,2-dioxide], for which the Ki was 230 nM. For `O=S1(=O)CC2(CCN(C3CCN(c4ncc(C(F)(F)F)cc4Cl)CC3)C2)C1` [Compound 30, 6-(1-(3-chloro-5-(trifluoromethyl)pyridin-2-yl)piperidin-4-yl)-2-thia-6-azaspiro[3.4]octane 2,2-dioxide], the inhibitory constant (Ki) turned out to be 13 nM. In the case of `Cc1cc(F)cnc1N1CCC(N2CCC3(C2)CS(=O)(=O)C3)CC1` [Compound 31, 6-(1-(5-fluoro-3-methylpyridin-2-yl)piperidin-4-yl)-2-thia-6-azaspiro[3.4]octane 2,2-dioxide] it was 84 nM. `O=S1(=O)CC2(CCN(C3CCN(c4ncc(C(F)(F)F)cc4F)CC3)C2)C1` [Compound 32, 6-(1-(3-fluoro-5-(trifluoromethyl)pyridin-2-yl)piperidin-4-yl)-2-thia-6-azaspiro[3.4]octane 2,2-dioxide] displayed a Ki of 11 nM. `CC(C)n1nc(-c2cncc(OC(F)F)c2)cc1[C@H]1CC[C@H](N2CCC3(C2)CS(=O)(=O)C3)CC1` [Compound 33A, 6-((1r,4r)-4-(3-(5-(Difluoromethoxy)pyridin-3-yl)-1-isopropyl-1H-pyrazol-5-yl)cyclohexyl)-2-thia-6-azaspiro[3.4]octane 2,2-dioxide] came in with a Ki of 34 nM. This Ki is about 3.1-fold higher than that of the compound before. As to `CC(C)n1nc(-c2cncc(OC(F)F)c2)cc1[C@H]1CC[C@@H](N2CCC3(C2)CS(=O)(=O)C3)CC1` [Compound 33B, (Cis)-6-(4-(3-(5-(Difluoromethoxy)pyridin-3-yl)-1-isopropyl-1H-pyrazol-5-yl)cyclohexyl)-2-thia-6-azaspiro[3.4]octane 2,2-dioxide], the inhibition constant Ki was 28 nM.

The compound `CC(C)n1nc(N2CC(F)(F)C2)cc1[C@H]1CC[C@H](N2CCC3(C2)CS(=O)(=O)C3)CC1` [Compound 35, 6-((1r,4r)-4-(3-(3,3-Difluoroazetidin-1-yl)-1-isopropyl-1H-pyrazol-5-yl)cyclohexyl)-2-thia-6-azaspiro[3.4]octane 2,2-dioxide] yielded an inhibition constant Ki of 280 nM.

`O=S1(=O)CC2(CCN([C@H]3CC[C@@H](c4cc(C(F)(F)F)nn4C4CC4)CC3)CC2)C1` [Compound 40A, 7-((1r,4r)-4-(1-cyclopropyl-3-(trifluoromethyl)-1H-pyrazol-5-yl)cyclohexyl)-2-thia-7-azaspiro[3.5]nonane 2,2-dioxide] yielded a Ki of 59 nM.

Compound `O=S1(=O)CC2(CCN([C@H]3CC[C@H](c4cc(C(F)(F)F)nn4C4CC4)CC3)CC2)C1` [Compound 40B, 7-((1s,4s)-4-(1-cyclopropyl-3-(trifluoromethyl)-1H-pyrazol-5-yl)cyclohexyl)-2-thia-7-azaspiro[3.5]nonane 2,2-dioxide] returned a Ki of 183 nM.
